Results as given in patent US20090155186A1, “Compositions and methods for treating inflammatory conditions” (SIGNUM BIOSCENCES, INC., priority 2005, published 2009).
Values belong to the molecule of their own block, whether it stands above or below them.

What was measured:
TPA-induced erythema = TPA-induced erythema in mouse ear (photograph); assay type: in vivo; conditions: 1 μg/20 μl TPA; 1 mg/20 μl AFC after 1 hour; photo 23 hours later
Method: For this example, both ears of a mouse were treated with a 1 μg/20 μl dose of TPA in acetone. […] The photo was taken 23 hours later using a Nikon D70 digital camera.

[1] = test system: delayed-type hypersensitivity; test: DNFB delayed-type hypersensitivity mouse ear model; assay type: in vivo; conditions: AFC 0.5 hour before or 15 min after challenge, contemplated result
Source text: The mouse ear model, described above, can be modified to assay the effect of anti-inflammatory agents in an immune based inflammation model (See Tramposch, K. M., Skin Inflammation, in In Vivo Models of Inflammation, M. L. Morgan D W, Editor. 1999, Birkhauser Verlag. pp. 179-20 and Chapman, J. P., Z. Ruben, and G. M. Butchko, Histology of and quantitative assays for oxazolone-induced allergic contact dermatitis in mice. Am J Dermatopathol, 1986. 8(2): 130-8). In this model, a sensitizing dose of dinitrofluorobenzene (DNFB) 1-3% in acetone can be applied topically according to a modification of the method by Back et al. to the shaved bellies of mice to elicit an immune response. (See Back, O. and T. Egelrud, Topical glucocorticoids and suppression of contact sensitivity. A mouse bioassay of anti-inflammatory effects. Br J Dermatol, 1985. 112(5): 539-45 and Bailey, S. C., et al., A novel contact hypersensitivity model for rank-ordering formulated corticosteroids. Inflamm Res, 1995. 44 Suppl 2: S162-3.) Mice then are challenged on day 5 with 40 μl of 0.5-1% DNFB to each ear. […] The ears are assayed for edema or neutrophil infiltration 5 hours later. Dexamethasone is used as a positive control. Five days later, the ears are challenged topically with a dose of DNFB insufficient to produce contact irritation. Simultaneously, cell infiltration studies are initiated. […]

chronic irritation = test: Chronic irritation in mice by multiple TPA applications; assay type: in vivo, mouse; conditions: AFC in acetone, contemplated result
Method: The effectiveness of the inventive compositions against established chronic irritation can be assayed using a modification of the technique of Stanley P L et al., Mouse skin inflammation induced by multiple topical application 12-O-tetradeconoyphorbol-13-acetate. Skin Pharmacol. 1991, 4(4):262-71. Both ears of each mouse are treated with TPA in acetone, as above, in a series of 5 applications on the mornings of days 0, 2, 4, 7, and 9. […] Punches of the ears then are taken the afternoon of the tenth day and prepared, as above, for the edema assay and the infiltration of neutrophils. Total granulocyte infiltration then is assayed by measuring MPO activity. Macrophage infiltration is determined immunocytologically using the MOMA-2 antibody. Hydrocortisone, which is known to reduce inflammatory edema granulation infiltration and microphage infiltration, can be used as a positive control.

[2] = target: membrane-associated polyisoprenoid methyl transferase (Homo sapiens, UniProt O60725); conditions: background statement; cited from earlier work
TPA-induced edema = test: TPA-induced edema, murine ear acute contact irritation model; assay type: in vivo, mouse; conditions: 2 μg TPA in 20 μl acetone; AFC in acetone 15 min later; 5.5 hours
Source text: (See Carlson, R. P., et al., Modulation of mouse ear edema by cyclooxygenase and lipoxygenase inhibitors and other pharmacologic agents. Agents Actions, 1985. 17(2): 197-204; Kuehl, F. A., Jr., et al., Role of prostaglandin endoperoxide PGG2 in inflammatory processes. Nature, 1977. 265(5590): 170-3; Trancik R J, L. N., Evaluation of topical nonsteroidal anti-inflammatory agents, in Models in Dermatology, L. Maibach, Editor. 1985, Karger. pp, 35-42; and Tramposch, K. M., Skin Inflammation, in In Vivo Models of Inflammation, M. L. Morgan D W, Editor. 1999, Birkhauser Verlag. pp. 179-204.)
The standard agents for initiating inflammation were the phorbol ester, tetradecanoylphorbol acetate, (TPA) and arachidonic acid (AA). TPA produces a greater and more prolonged neutrophil infiltration response than AA (See Rao, T. S., et al., Comparative evaluation of arachidonic acid (AA)-and tetradecanoylphorbol acetate (TPA)-induced dermal inflammation. Inflammation, 1993.17(6): 72341.) TPA-induced inflammation is the preferred agent and was used for this example.
In order to assess the effects of the inventive composition on TPA-induced edema, 2 μg of TPA in 20 μl acetone was applied with the aid of a micropipetter onto both ears of each of 6 mice. The mice were returned to their cages. […]

mouse ear [3] = test: AFC in acetone alone, mouse ear edema (irritancy test); assay type: in vivo; conditions: topical, dose up to about 32 mg/20 μl, 5.5 hours
Method: Each contralateral ear was treated with only acetone in the same manner. The mice then were returned to their cages. After 5.5 hours, mice were sacrificed and 6 mm punches were taken from each ear and weighed. Edema response was expressed as the percent increase in the treated ear's weight over the untreated (acetone, vehicle only) ear.

TPA-induced MPO activity [4] = test: TPA-induced neutrophil infiltration, MPO assay of mouse ears; assay type: in vivo
Method: MPO enzyme activity of the ears was assayed using the technique detailed by Griffiths and coworkers (1988). To conduct the assay, each ear was homogenized in 1.0 ml of cetyltrimethylammonium bromide buffer for 5 sec using a Pro 200 tissue blender (Pro Scientific, Inc., Oxford, Conn.) at setting 5. These samples then were centrifuged for 5 minutes at 15,000 rpm in a 5415 Eppendorf microcentrifuge. Triplicate 20 microliter aliquots of supernatant were added to 200 microliters of reaction mixture (1.25 ml IM Potassium Phosphate, 4.175 mg o-dianisidine dihydrochloride and 5 μl of 1% peroxide in a final volume of 25 ml). Absorbance at 450 nm then was measured at room temperature at three 60 second intervals using Bio-Kinetics Reader EL 312E (Bio-Tek Instruments). Activity of the homogenate, which was determined by a Bradford assay (BioRad Protein Assay, BioRad Laboratories, Inc. Hercules, Calif.), was expressed as units MPO per mg tissue +/−standard error.
Two micrograms (2 μg) of TPA in 20 μl of acetone was applied onto both ears of each mouse to induce neutrophil infiltration. After 15 minutes, varying concentrations of AFC in acetone were applied to the right ear of each mouse. After 24 hours, the mice were sacrificed. The ears were removed and the efficacy of AFC on neutrophil infiltration was assessed by an MPO assay and histological analysis.
The effectiveness of AFC treatment at various times before and after TPA application was assessed using MPO as a measure of neutrophil infiltration. […]

human skin = test: SDS patch irritation on human skin with pre-applied AFC; assay type: in vivo; conditions: AFC 140 mM aqueous formulation pre-applied
Method: An irritant was applied to the middle of the upper back of a human subject using a 0.2 ml 20% SDS solution and a Hill-Top Chamber patch with Webril pad. […] Patches 1a and 2a were removed after 2 hours, while patches 1b and 2b were removed after 2 hours and 30 minutes. High levels of irritation were visible in patch sites 2a and 2b.

[5] = test system: TPA-induced neutrophil infiltration; test: TPA-induced neutrophil infiltration, neutrophil counting assay (H&E histology); assay type: in vivo, mouse
Method: Neutrophil-infiltration Assay: Swiss Webster male mice (n=6) were treated with 1 μg/20 μl of TPA as described above in order to assess whether or not TPA induced neutrophil infiltration Acetone was used as a control. TPA was administered as described above. The mice were returned to their cages for 24 hrs to allow neutrophil infiltration, then sacrificed by cervical dislocation. The ears were removed immediately for punch biopsy, and punches were fixed for subsequent histological analysis and MPO enzymatic assay.
Neutrophil Counting Assay: Ear punches buffered in 10% formalin in PBS at ambient temperature for a minimum of 24 hrs. were sectioned and stained with Hematoxilin & Eosin (“H&E”). The number of neutrophils, identified by their multilobular nuclei, in 6 randomly 100× magnified fields distributed along the length of the ear were counted manually The results are expressed as the average number per field for each ear.
Two micrograms (2 μg) of TPA in 20 μl of acetone was applied onto both ears of each mouse to induce neutrophil infiltration. […] After 24 hours, the mice were sacrificed.

[6] = test system: neutrophil, macrophage, and platelet responses; conditions: in vitro, background statement; cited from earlier work
TPA-induced MPO activity [7] = conditions: mouse, in vivo
Method: These included dexamethasone, a steroid, and indomethasone, a non-steroid anti-inflammatory drug, which targets cycloxygenases. The action of AFC in this model was, therefore, compared to that of dexamethasone and indomethasone. Each of these agents were tested using the same protocols used to test AFC.

mouse ear [8] = test: Induction of mouse ear edema by TPA (dose response for irritant); assay type: in vivo; conditions: of the acetone-treated ear; TPA 0.25 to 1.75 μg/20 μl in acetone, topical, 5.5 hours
Method: A dose response range for TPA, a compound known to induce edema, was determined. TPA produces an increase in edema (ear swelling) that reaches a maximum at 6 hours.
Increasing concentrations of TPA dissolved in acetone were applied with the aid of a micropipetter onto the right ear of each of the five 6-8 week old, male Swiss Webster mice used in this analysis. Ten microliters (10 μl) were spread evenly onto the inner and outer surfaces using the pipette tip. The mice then were returned to their cages. The contralateral ear was treated only with acetone. After 5.5 hours, the mice were sacrificed and 6 mm punches were taken from each ear and weighed. Edema response was expressed as a percent increase in the treated ear's weight over the untreated ear. The dose response curve, as well as an ED50 value, was determined using the Lichtfield method (Lichtfield J T W. F., A simplified method of evaluating dose-effect experiments, Journal of Pharmacology and Experimental Therapeutics, 1948, 96: 99-113).

[9] = 2 μg TPA in 20 μl acetone, AFC 15 min later, 24 hours

Chain of membrane-associated polyisoprenoid methyl transferase (O60725 whole entry): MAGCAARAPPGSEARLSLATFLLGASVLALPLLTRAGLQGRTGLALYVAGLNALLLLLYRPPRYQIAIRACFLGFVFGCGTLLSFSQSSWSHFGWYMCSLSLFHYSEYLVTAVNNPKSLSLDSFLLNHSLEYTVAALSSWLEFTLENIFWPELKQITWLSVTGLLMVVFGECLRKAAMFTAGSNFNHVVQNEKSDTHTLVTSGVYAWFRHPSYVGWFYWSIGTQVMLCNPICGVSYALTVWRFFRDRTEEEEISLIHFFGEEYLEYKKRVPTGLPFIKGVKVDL

Molecule: CC(=O)N[C@@H](CSCC=C(C)CCC=C(C)CCC=C(C)C)C(=O)O (stereo in doubt) [AFC, N-acetyl-5-trans, trans-farnesyl-L-cysteine]
TPA-induced erythema (TPA-induced erythema): An effect of the AFC inventive composition on TPA-induced erythema was observed | edema and neutrophil infiltration in DNFB challenge [1]: effective in reducing both edema and neutrophil infiltration | chronic edema and neutrophil number (chronic irritation): reduces chronic edema and neutrophil number | inhibition of polyisoprenoid methyl transferase [2]: inhibit membrane-associated polyisoprenoid methyl transferase | ED50 for TPA-induced edema inhibition (TPA-induced edema): approximately 0.44 mg/20 μl | maximum reduction in TPA-induced edema (TPA-induced edema): 80% | edema response (ear punch biopsy weight) to AFC alone (mouse ear [3]): no effect | effect on TPA-induced MPO activity at different application times (TPA-induced MPO activity [4]; 1 μg/20 μl TPA, 1 mg/20 μl AFC at various times before and after TPA): efficacy of AFC treatment prior to, simultaneous with, or after exposure of skin to TPA | ED50 for inhibition of TPA-induced MPO activity (TPA-induced MPO activity [4]; [9]): 0.065 mg/20 μl | inhibition of TPA-induced increases in MPO activity (TPA-induced MPO activity [4]; [9]): > 80% | skin irritation at patch site 1b (human skin; 20% SDS patch removed after 2 hours and 30 minutes): mild response | skin irritation at patch site 1a (human skin; 20% SDS patch removed after 2 hours): normal skin | reduction in dermal neutrophils (counts) ([5]; 1.0 mg/20 μl AFC, TPA acute contact irritation, statistically significant, paired t-test): 80% | neutrophils in histology of AFC treated ear ([5]; TPA pretreated ears, 24 hours, FIG. 5): substantial reduction of neutrophils | neutrophil, macrophage and platelet responses [6]: block some neutrophil, macrophage, and platelet responses in vitro

MPO activity in the contralateral vehicle-treated ear (systemic effect) (TPA-induced MPO activity [7]): increasing inhibition of MPO activity
Molecule: C[C@@H]1C[C@H]2[C@@H]3CCC4=CC(=O)C=C[C@]4(C)[C@@]3(F)[C@@H](O)C[C@]2(C)[C@@]1(O)C(=O)CO [dexamethasone]

MPO activity in the contralateral vehicle-treated ear (systemic effect) (TPA-induced MPO activity [7]): increasing inhibition of MPO activity
Molecule: COc1ccc2c(c1)c(CC(=O)O)c(C)n2C(=O)c1ccc(Cl)cc1 [indomethasone]

Molecule: tetradecanoylphorbol acetate [TPA]
maximum increase in ear weight (edema) (mouse ear [8]): approximately 150%
